Laboratory results: ChEMBL document CHEMBL5150019, “Targeting Extracellular Signal-Regulated Protein Kinase 1/2 (ERK1/2) in Cancer: An Update on Pharmacological Small-Molecule Inhibitors” (J Med Chem, 2022)
Values belong to the molecule of their own block, whether it stands above or below them.

Tests used:
[1] = system: MCF7; experiment: Antiproliferative activity in human MCF7 cells assessed as cell growth inhibition measured after 24 hrs by MTT assay; type: functional, cell-based; settings: MCF7, 24 h
[2] = target: Mitogen-activated protein kinase 1 (Rattus norvegicus, UniProt P63086); experiment: Binding affinity to rat full-length ERK2 using FQRKTLQRRNLKGLNLNL-XXX-TGPLSPGPF peptide as substrate in presence of [gamma33P]ATP by scintillation counter analysis
Sequence of Mitogen-activated protein kinase 1 (Rattus norvegicus, UniProt P63086) (P63086 whole entry): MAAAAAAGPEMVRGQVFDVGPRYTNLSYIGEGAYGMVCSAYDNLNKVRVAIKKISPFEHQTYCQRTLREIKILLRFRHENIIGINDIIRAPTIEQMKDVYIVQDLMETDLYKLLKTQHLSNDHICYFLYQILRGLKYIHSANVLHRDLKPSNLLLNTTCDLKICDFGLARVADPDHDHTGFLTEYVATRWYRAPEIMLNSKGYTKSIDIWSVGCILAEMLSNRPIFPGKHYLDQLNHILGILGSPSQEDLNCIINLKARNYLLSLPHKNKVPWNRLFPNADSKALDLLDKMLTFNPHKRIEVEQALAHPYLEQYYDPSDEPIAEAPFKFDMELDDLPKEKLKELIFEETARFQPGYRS

[3] = target: T1, Mitogen-activated protein kinase 1 (Homo sapiens, UniProt P28482); experiment: Inhibition of ERK2 (unknown origin)
T1 sequence (P28482 whole entry): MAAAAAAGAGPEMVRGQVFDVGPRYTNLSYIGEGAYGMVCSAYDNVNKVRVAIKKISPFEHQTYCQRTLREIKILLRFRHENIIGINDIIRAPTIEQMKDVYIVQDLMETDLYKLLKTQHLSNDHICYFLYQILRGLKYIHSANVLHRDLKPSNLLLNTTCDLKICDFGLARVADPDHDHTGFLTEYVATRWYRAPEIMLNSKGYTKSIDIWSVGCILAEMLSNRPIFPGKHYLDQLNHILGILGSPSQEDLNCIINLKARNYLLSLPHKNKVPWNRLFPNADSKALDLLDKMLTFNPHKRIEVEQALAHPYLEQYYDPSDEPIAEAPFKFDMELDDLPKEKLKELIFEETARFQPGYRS

[4] = target: T1, Mitogen-activated protein kinase 1; experiment: Binding affinity to ERK2 (unknown origin)
[5] = target: T2, Mitogen-activated protein kinase 3 (Homo sapiens, UniProt P27361); experiment: Inhibition of ERK1 (unknown origin)
T2 sequence (P27361 whole entry): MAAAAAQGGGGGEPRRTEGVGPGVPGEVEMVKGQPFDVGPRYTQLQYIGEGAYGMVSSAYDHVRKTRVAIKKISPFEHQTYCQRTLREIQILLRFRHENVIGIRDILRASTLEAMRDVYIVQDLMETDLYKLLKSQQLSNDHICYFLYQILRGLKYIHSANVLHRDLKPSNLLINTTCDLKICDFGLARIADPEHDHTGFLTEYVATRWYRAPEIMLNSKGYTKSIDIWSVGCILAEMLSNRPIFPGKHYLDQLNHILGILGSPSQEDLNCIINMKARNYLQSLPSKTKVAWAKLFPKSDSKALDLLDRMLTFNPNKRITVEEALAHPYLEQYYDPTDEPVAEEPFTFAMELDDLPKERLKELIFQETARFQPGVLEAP

[6] = Antitumor activity against patient-derived Pancreatic cancer cell xenografted in NMRI nu/nu mouse PAXF-2059 model assessed as cell growth inhibition; type: functional, cell-based; settings: Homo sapiens
[7] = system: Lung cancer cell line; experiment: Antitumor activity against patient-derived Lung cancer cell line xenografted in NMRI nu/nu mouse LXFA-983 model assessed as cell growth inhibition; type: functional, cell-based; settings: Homo sapiens
[8] = Antitumor activity against patient-derived Colorectal cancer cell xenografted in NMRI nu/nu mouse CXF-243 model assessed as cell growth inhibition; type: functional, cell-based; settings: Homo sapiens
[9] = Antiproliferative activity in mouse MB49 cells assessed as cell growth inhibition; type: functional, cell-based
[10] = system: UMUC3; experiment: Antiproliferative activity in human UMUC3 cells assessed as cell growth inhibition; type: functional, cell-based
[11] = target: T2, Mitogen-activated protein kinase 3; experiment: Binding affinity to ERK1 (unknown origin)
[12] = target: T2, Mitogen-activated protein kinase 3; experiment: Binding affinity to ERK1 (unknown origin) measured after 20 mins in presence of [gamma33P]ATP by scintillation counter analysis

IC50 [1]: 5000 nM
Structure (SMILES): Clc1cc(Cl)cc(C(Cn2ccnc2)OCc2nc3ccccc3s2)c1 (stereo unspecified)

Ki [2]: 2300 nM
Structure (SMILES): O=[N+]([O-])c1cnc(Sc2nnc(O)n2-c2ccc3c(c2)OCCO3)s1

IC50 [3]: 500 nM
Structure (SMILES): COc1ccc2[nH]cc(/C=C3\C(=O)Nc4ccc(NC(=O)CCN5CCCCC5)cc43)c2c1

Kd [4]: 380 nM
IC50 [3]: 9900 nM
Structure (SMILES): N=C(N)NCCC[C@H]1CNC(=N)N1CCN(CCN1C[C@H](CCCNC(=N)N)N(CCCC2CCCCC2)C1=N)CCN1C[C@H](CCCNC(=N)N)N(CCc2cccc(Br)c2)C1=N

IC50 [3]: 10 nM
IC50 [5]: 10 nM
IC50 [7]: 800 nM
Structure (SMILES): C=CC(=O)Nc1cc(C)ccc1Nc1nc(Nc2cc(OC)ncc2C)ncc1C(F)(F)F
IC50 [6]: 621 nM
IC50 [8]: 586 nM

IC50 [3]: 2 nM
IC50 [5]: 2 nM
Structure (SMILES): Cc1cnc(NC2CCOCC2)nc1-n1cnc(C(=O)N[C@H](CN)c2cc(F)cc(Cl)c2)c1 [ASN007]

IC50 [3]: 10 nM
IC50 [5]: 10 nM
Structure (SMILES): O=C1Nc2cc3[nH]nc(-c4ccncc4)c3cc2CN1Cc1ccccc1 [KO-947]

Structure (SMILES): N=C(N)NC(=N)NCCc1ccccc1 [PHENFORMIN]
IC50 [9]: 570000 nM
IC50 [10]: 250000 nM

Ki [4]: 0.064 nM
IC50 [3]: 5 nM
IC50 [5]: 5 nM
Ki [11]: 0.65 nM
Structure (SMILES): Cn1nccc1Nc1nccc(-c2cc3c(s2)C(C)(C)N(CCN2CCOCC2)C3=O)n1 [TEMUTERKIB]

Ki [12]: < 0.3 nM
Structure (SMILES): CC(C)Nc1cc(-c2c[nH]c(C(=O)N[C@H](CO)c3cccc(Cl)c3)c2)c(Cl)cn1 [ULIXERTINIB]
